This passage reports IC50 and GI50 results from ChEMBL document CHEMBL3877299, “Imidazopyridine-fused [1,3]-diazepinones part 2: Structure-activity relationships and antiproliferative activity against melanoma cells” (Eur J Med Chem, 2017).

Chain of Mitogen-activated protein kinase kinase kinase kinase 4 (O95819 whole entry): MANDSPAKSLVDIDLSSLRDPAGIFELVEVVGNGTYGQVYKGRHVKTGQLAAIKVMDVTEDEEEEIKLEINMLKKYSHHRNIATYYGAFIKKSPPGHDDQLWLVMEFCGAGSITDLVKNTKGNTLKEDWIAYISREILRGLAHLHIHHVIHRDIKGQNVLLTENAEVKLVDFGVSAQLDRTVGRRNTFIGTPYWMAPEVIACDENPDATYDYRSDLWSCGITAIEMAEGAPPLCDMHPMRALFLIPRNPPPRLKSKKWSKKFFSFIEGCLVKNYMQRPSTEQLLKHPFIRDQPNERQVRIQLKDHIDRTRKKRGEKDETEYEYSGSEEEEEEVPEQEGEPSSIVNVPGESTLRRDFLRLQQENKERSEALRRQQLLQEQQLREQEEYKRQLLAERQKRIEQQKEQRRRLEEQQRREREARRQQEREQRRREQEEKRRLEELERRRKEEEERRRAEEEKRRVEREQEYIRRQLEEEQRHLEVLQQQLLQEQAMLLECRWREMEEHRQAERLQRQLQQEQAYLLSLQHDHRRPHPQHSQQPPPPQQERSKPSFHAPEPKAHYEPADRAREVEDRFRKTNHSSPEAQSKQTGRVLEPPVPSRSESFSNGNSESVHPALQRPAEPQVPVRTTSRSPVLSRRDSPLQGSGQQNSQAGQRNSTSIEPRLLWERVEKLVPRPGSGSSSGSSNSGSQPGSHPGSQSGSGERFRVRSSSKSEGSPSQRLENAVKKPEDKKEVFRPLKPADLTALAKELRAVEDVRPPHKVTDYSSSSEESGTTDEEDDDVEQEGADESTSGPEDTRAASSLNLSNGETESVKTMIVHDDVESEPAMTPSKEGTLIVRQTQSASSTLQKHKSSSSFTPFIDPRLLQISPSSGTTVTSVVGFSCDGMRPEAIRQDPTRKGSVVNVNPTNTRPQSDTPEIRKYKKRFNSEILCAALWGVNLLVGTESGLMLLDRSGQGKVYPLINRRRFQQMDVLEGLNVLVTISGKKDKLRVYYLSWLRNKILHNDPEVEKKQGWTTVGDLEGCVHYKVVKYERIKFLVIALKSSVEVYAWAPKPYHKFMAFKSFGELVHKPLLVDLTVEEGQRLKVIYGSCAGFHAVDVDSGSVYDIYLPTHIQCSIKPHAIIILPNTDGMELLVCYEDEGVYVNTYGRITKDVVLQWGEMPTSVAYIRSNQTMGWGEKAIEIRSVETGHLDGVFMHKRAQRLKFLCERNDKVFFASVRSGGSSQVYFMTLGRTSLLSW

One test has as its target Mitogen-activated protein kinase kinase kinase kinase 4 (Homo sapiens, UniProt O95819). The test can be described thus: Inhibition of recombinant human HGK using Ulight-FLGFTYVAP as substrate after 90 mins by LANCE assay.
Details: not given
On the technique in general: TR-FRET usually uses a lanthanide donor and a delayed reading to cut background.
As to `CC(=O)Nc1ccc(C2=Nc3nc4ccccn4c3C(=O)[C@H](C)N2)cc1`, the IC50 – broadly, the concentration needed to halve the response being measured – is above 100 µM.
The same measure, in the same setting: the same measure for `C[C@H]1NC(c2ccc(Br)cc2)=Nc2nc3ccccn3c2C1=O`: above 100 µM; for `C[C@@H]1NC(c2ccc(-c3ccccc3)cc2)=Nc2nc3ccccn3c2C1=O`: above 100 µM.
`CC(C)[C@@H]1NC(c2ccc(Br)cc2)=Nc2nc3ccccn3c2C1=O`: the half-maximal inhibitory concentration (IC50) stood at 44 µM.

Test system in a further test: not listed separately
The test can be described thus: Cytotoxicity against human MDA-MB-435 cells assessed as growth inhibition after 48 hrs by MTT assay. In kind it is functional. To be noted: MDA-MB-435, 48 h. Background: Tetrazolium dyes change colour on reduction, which living cells bring about.
For `C[C@@H]1NC(c2ccc(C(F)(F)F)cc2)=Nc2nc3ccccn3c2C1=O`, the GI50 (usually the concentration giving 50% growth inhibition) was above 10 µM.
As for `CC[C@@H]1NC(c2ccc(Br)cc2)=Nc2nc3ccccn3c2C1=O`, the concentration for 50% growth inhibition (GI50) worked out at 1 µM.
On the same count and under the same terms, the same measure for `CC(=O)Nc1ccc(C2=Nc3nc4ccccn4c3C(=O)[C@H](C)N2)cc1`: 10 to 100 µM; for `C[C@@H]1NC(c2cccc3ccccc23)=Nc2nc3ccccn3c2C1=O`: 1.4 µM.
With `C[C@@H]1NC(c2ccc(C#N)cc2)=Nc2nc3ccccn3c2C1=O`, the GI50 was above 10 µM.
Still for that read-out and setting: the same measure for `C[C@H]1C(=O)c2c(nc3ccccn23)N=C(c2ccc(Br)cc2)N1C`: above 10 µM.
Take `C[C@@H]1NC(c2ccccc2Cl)=Nc2nc3ccccn3c2C1=O`: the GI50 turned out to be 6.5 µM.
`C[C@H]1NC(c2ccc(Br)cc2)=Nc2nc3ccccn3c2C1=O`: the 50% growth inhibitory concentration (GI50) was above 100 µM.
On the same count and under the same terms, the same measure for `C[C@@H]1NC(c2ccc(F)cc2)=Nc2nc3ccccn3c2C1=O`: above 10 µM; for `CCOC(=O)c1ccc(C2=Nc3nc4ccccn4c3C(=O)[C@H](C)N2)cc1`: above 10 µM.
For the compound `O=C1c2c(nc3ccccn23)N=C(c2ccc(Br)cc2)N[C@H]1CO`, the GI50 was 0.95 to 1 µM.
`C[C@@H]1NC(c2cccc(Cl)c2)=Nc2nc3ccccn3c2C1=O`: the GI50 turned out to be 10 µM.
Same read-out and setting: the same measure for `C[C@@H]1NC(c2ccc(I)cc2)=Nc2nc3ccccn3c2C1=O`: 1.35 µM; for `C[C@@H]1NC(c2ccc(Cl)c(C(F)(F)F)c2)=Nc2nc3ccccn3c2C1=O`: above 10 µM.
On the same count and under the same terms, the same measure for `O=C(NCCCC[C@@H]1NC(c2ccc(Br)cc2)=Nc2nc3ccccn3c2C1=O)OCc1ccccc1`: above 10 µM.
For `O=C1CNC(c2ccc(Br)cc2)=Nc2nc3ccccn3c21`, the 50% growth inhibitory concentration (GI50) is above 10 µM.
The same measure, in the same setting: the figure for `COc1ccc(C2=Nc3nc4ccccn4c3C(=O)[C@H](C)N2)cc1OC` is above 10 µM; for `CNC(=O)c1ccc(C2=Nc3nc4ccccn4c3C(=O)[C@H](C)N2)cc1` it is above 10 µM; for `Cc1ccccc1C1=Nc2nc3ccccn3c2C(=O)[C@H](C)N1` it is above 10 µM.
Still for that read-out and setting: the same measure for `C[C@@H]1NC(c2ccc(-c3ccccc3)cc2)=Nc2nc3ccccn3c2C1=O`: 40 µM.
As to `C[C@@H]1NC(c2cccc(Br)c2)=Nc2nc3ccccn3c2C1=O`, the concentration for 50% growth inhibition (GI50) was above 10 µM.
On the same count and under the same terms, the figure for `CC(C)[C@@H]1NC(c2ccc(Br)cc2)=Nc2nc3ccccn3c2C1=O` is 50 µM; for `C[C@@H]1NC(c2ccc(Br)cc2)=Nc2nc3ccccn3c2[C@H]1O` it is above 10 µM.
Still for that read-out and setting: the same measure for `NCCCC[C@@H]1NC(c2ccc(Br)cc2)=Nc2nc3ccccn3c2C1=O`: above 10 µM; for `C[C@@H]1NC(c2ccccc2Br)=Nc2nc3ccccn3c2C1=O`: 8.35 µM.
